The test system of assay [1] is Escherichia coli. Nature of the assay: Antimicrobial activity against Escherichia coli JM109 transformed with Entamoeba histolytica NTR1 after 16 hrs. It is filed as functional, organism-based. The conditions noted are these: JM109, JM 109, 16 h.
Assay [2] deals with Entamoeba histolytica. Description: Activity of Entamoeba histolytica NIM1.
Assay [3] concerns Entamoeba histolytica. Description: Activity of Entamoeba histolytica NTR3 at 50 uM.
For assay [4], the system named is Escherichia coli. Nature of the assay: Ratio of EC50 for Escherichia coli JM109 transformed with empty vector PQE30 to EC50 for Escherichia coli JM109 transformed with Entamoeba histolytica NTR2. In kind it is functional.
In assay [5] the test system is Trichomonas vaginalis. Description: Activity of Trichomonas vaginalis NTR8 at 50 uM.
The subject of assay [6] is Escherichia coli. Nature of the assay: Ratio of EC50 for Escherichia coli JM109 transformed with empty vector PQE30 to EC50 for Escherichia coli JM109 transformed with Trichomonas vaginalis nim1. In kind it is functional.
Assay [7] concerns Entamoeba histolytica. Description: Activity of Entamoeba histolytica NTR2 at 50 uM.
Assay [8] concerns Giardia duodenalis. Nature of the assay: Activity of Giardia lamblia NTR at 50 uM.
Assay [9] deals with Escherichia coli. Nature of the assay: Antimicrobial activity against Escherichia coli JM109 transformed with Entamoeba histolytica NTR2 after 16 hrs. It is filed as functional, organism-based. The conditions noted are these: JM109, JM 109, 16 h.
Assay [10] has as its system Escherichia coli. Nature of the assay: Ratio of EC50 for Escherichia coli JM109 transformed with empty vector PQE30 to EC50 for Escherichia coli JM109 transformed with Entamoeba histolytica NTR1. It is filed as functional.
In assay [11] the test system is Entamoeba histolytica. Nature of the assay: Activity of Entamoeba histolytica NTR1 at 50 uM.
Assay [12] deals with Escherichia coli. Description: Antimicrobial activity against Escherichia coli JM109 transformed with Trichomonas vaginalis nim1 after 16 hrs. In kind it is functional, organism-based. The conditions noted are these: JM109, JM 109, 16 h.
Assay [13] concerns Escherichia coli. Nature of the assay: Antimicrobial activity against Escherichia coli JM109 transformed with Entamoeba histolytica nim1 after 16 hrs. The conditions noted are these: JM109, JM 109, 16 h. In kind it is functional, organism-based.
Assay [14] concerns Escherichia coli. Description: Antimicrobial activity against Escherichia coli JM109 transformed with empty vector PQE30 after 16 hrs. It is filed as functional, organism-based. The note with it: JM109, JM 109, 16 h.
For assay [15], the system named is Escherichia coli. Nature of the assay: Ratio of EC50 for Escherichia coli JM109 transformed with empty vector PQE30 to EC50 for Escherichia coli JM109 transformed with Entamoeba histolytica nim1. It is filed as functional.

A word on the EC50: it is the concentration that produces a half-maximal response. High values mean a less potent agent, low ones a more potent agent. The term Vmax denotes the top rate of the reaction or transport when substrate is in excess. As usually defined, the Km is the substrate concentration at which the rate is half of its maximum.

The structures appear in SMILES notation. ≈ marks a conversion by molar mass, not a printed value.

Regarding `Cc1ncc([N+](=O)[O-])n1CCO` [METRONIDAZOLE], the concentration for a half-maximal effect (EC50) in assay [1] turned out to be 7 µg/mL (≈ 40.9 µM); in assay [9], 8 µg/mL (≈ 46.7 µM); in assay [12] it was 500 µg/mL (≈ 2920 µM); in assay [13] it was 750 µg/mL (≈ 4380 µM); in assay [14], 25 µg/mL (≈ 146 µM). The Vmax in assay [2] was 0.057 µmol/min; in assay [3], 0.014 µmol/min; in assay [5] it was 0.329 µmol/min; in [7] it was 0.031 µmol/min; in assay [8], 0.347 µmol/min; in assay [11], 0.027 µmol/min. Moreover, the Km in [3] is 0.083 µM; in assay [5], 0.078 µM; in assay [7], 0.081 µM; in assay [8] it was 0.206 µM; in [11], 0.067 µM. The “Ratio EC50” value stood at 3 in assay [4], 20 in assay [6], 3 in assay [10] and 30 in [15].

The record behind these values is ChEMBL document CHEMBL1649121, “Giardia, Entamoeba, and Trichomonas enzymes activate metronidazole (nitroreductases) and inactivate metronidazole (nitroimidazole reductases)” (Antimicrob Agents Chemother, 2009).
